Among the data in patent US20210101881A1 (Ancureall Pharmaceutical (Shanghai) Co., Ltd., priority 2018, published 2021) are IC50 values, retold here.

For this assay, the system named is MOLM13 cells. Kind of assay: Growth inhibition of CDK9-positive cell line MOLM13 in vitro (CCK8/MTT assay). The class given is cell-based, human. To be noted: Homo sapiens, MOLM-13; MOLM13 cells, cultured 3 to 6 days, CCK8; read-out: IC50 of the compound for inhibiting cell growth, MOLM13 cells. How it is done: 1. MOLM13 cell line and cell culture MOLM13 is a CDK9-positive human acute myeloid leukemia cell line from DMSZ. Suspension culture was carried out in RPMI1640 (Gibco) medium with 10% fetal bovine serum (Gibco), 1% penicillin-streptomycin and 2 mM glutamine.
Suspended MOLM-13 cells in logarithmic growth phase were collected by centrifugation (1700 rpm, 3 minutes), the supernatant was discarded, and the cells were counted. A solution with a cell concentration of 2×10^5 cells per milliliter was formulated and inoculated in a 96-well plate (Corning) with 100 microliters per well. The plate was incubated at 37° C., 5% CO2 overnight. On the next day, the test compound was added to the cultured cells in two parallel wells. […]
The present compound and the control compounds were respectively dissolved in DMSO (Sigma).
When the solvent control well became dark yellow, the OD450 nm absorption value was measured, and the cell growth rate was calculated according to the following formula. Cell growth rate %=100*(T−T0)/(C−T0), wherein T=the optical density value of the drug-treated well—the optical density value of the blank control well, T0=the optical density value of the well before drug treatment—the optical density value of the blank control well, C=the optical density value of the solvent control well—the optical density value of the blank control well. […] The assay was repeated three times, and the data was subjected to a biological statistical analysis.

Consider `Cc1cc(Nc2nccc(-n3cc(C(N)=O)c4ccccc43)n2)ccc1N1CCNCC1` [Compound 28, 1-[2-(3-methyl-4-piperazin-1-yl-phenylamino)-pyrimidin-4-yl]-1H-indole-3-carboxamide], for which the IC50 lay in the range of 0.001 to 0.01 µM.

Consider `NC(=O)c1cn(-c2ccnc(Nc3ccc(N4CCNCC4)cc3)n2)c2cccc(F)c12` [Compound 29, 4-fluoro-1-[2-(4-piperazin-1-yl-phenylamino)-pyrimidin-4-yl]-1H-indole-3-carboxamide], for which the IC50 lay in the range of 0.01 to 0.1 µM.

Turning to `NC(=O)c1cn(-c2ccnc(Nc3ccc(N4CCNCC4)cc3)n2)c2cc(F)ccc12` [Compound 30, 6-fluoro-1-[2-(4-piperazin-1-yl-phenylamino)-pyrimidin-4-yl]-1H-indole-3-carboxamide], the IC50 was 0.001 to 0.01 µM.

Take `NC(=O)c1cn(-c2ccnc(Nc3ccc(N4CCNCC4)cc3)n2)c2c(F)cccc12` [Compound 31, 7-fluoro-1-[2-(4-piperazin-1-yl-phenylamino)-pyrimidin-4-yl]-1H-indole-3-carboxamide]: the IC50 was in the range of 0.01 to 0.1 µM.

Regarding `NC(=O)c1cn(-c2ccnc(Nc3ccc(N4CCNCC4)cc3)n2)c2ccc(Br)cc12` [Compound 32, 5-bromo-1-[2-(4-piperazin-1-yl-phenylamino)-pyrimidin-4-yl]-1H-indole-3-carboxamide], the IC50 was in the range of 0.01 to 0.1 µM.

On to `COc1ccc2c(c1)c(C(N)=O)cn2-c1ccnc(Nc2ccc(N3CCNCC3)cc2)n1` [Compound 33, 5-methoxy-1-[2-(4-piperazin-1-yl-phenylamino)-pyrimidin-4-yl]-1H-indole-3-carboxamide], for which the IC50 was in the range of 0.001 to 0.01 µM.

In the case of `NC(=O)c1cn(-c2nc(Nc3ccc(N4CCNCC4)cc3)ncc2Cl)c2ccccc12` [Compound 34, 1-[5-chloro-2-(4-piperazin-1-yl-phenylamino)-pyrimidin-4-yl]-1H-indole-3-carboxamide], the IC50 was < 0.001 µM.

Regarding `NC(=O)c1cn(-c2nc(Nc3ccc(N4CCNCC4)cc3)ncc2F)c2ccccc12` [Compound 35, 1-[5-fluoro-2-(4-piperazin-1-yl-phenylamino)-pyrimidin-4-yl]-1H-indole-3-carboxamide], the 50% inhibitory concentration (IC50) is < 0.001 µM.

`COc1cnc(Nc2ccc(N3CCNCC3)cc2)nc1-n1cc(C(N)=O)c2ccccc21` [Compound 36, 1-[5-methoxy-2-(4-piperazin-1-yl-phenylamino)-pyrimidin-4-yl]-1H-indole-3-carboxamide]: the half-maximal inhibitory concentration (IC50) is 0.001 to 0.01 µM.

Regarding `Cc1cnc(Nc2ccc(N3CCNCC3)cc2)nc1-n1cc(C(N)=O)c2ccccc21` [Compound 37, 1-[5-methyl-2-(4-piperazin-1-yl-phenylamino)-pyrimidin-4-yl]-1H-indole-3-carboxamide], the concentration for half-maximal inhibition (IC50) lay in the range of 0.001 to 0.01 µM.

As for `Cc1cc(-n2cc(C(N)=O)c3ccccc32)nc(Nc2ccc(N3CCNCC3)cc2)n1` [Compound 38, 1-[6-methyl-2-(4-piperazin-1-yl-phenylamino)-pyrimidin-4-yl]-1H-indole-3-carboxamide], the IC50 lay within 0.1 to 1 µM.

For `COc1cc(Nc2ncc(F)c(-n3cc(C(N)=O)c4ccccc43)n2)ccc1N1CCNCC1` [Compound 40, 1-[5-fluoro-2-(3-methoxy-4-piperazin-1-yl-phenylamino)-pyrimidin-4-yl]-1H-indole-3-carboxamide], the IC50 was < 0.001 µM.

As for `NC(=O)c1cn(-c2nc(Nc3ccc(N4CCNCC4)c(F)c3)ncc2F)c2ccccc12` [Compound 41, 1-[5-fluoro-2-(3-fluoro-4-piperazin-1-yl-phenylamino)-pyrimidin-4-yl]-1H-indole-3-carboxamide], the IC50 lay within 0.001 to 0.01 µM.

Take `COc1cc(Nc2ncc(Cl)c(-n3cc(C(N)=O)c4ccccc43)n2)ccc1N1CCNCC1` [Compound 43, 1-[5-chloro-2-(3-methoxy-4-piperazin-1-yl-phenylamino)-pyrimidin-4-yl]-1H-indole-3-carboxamide]: the IC50 was < 0.001 µM.

Turning to `NC(=O)c1cn(-c2nc(Nc3ccc(N4CCNCC4)c(F)c3)ncc2Cl)c2ccccc12` [Compound 44, 1-[5-chloro-2-(3-fluoro-4-piperazin-1-yl-phenylamino)-pyrimidin-4-yl]-1H-indole-3-carboxamide], the IC50 is 0.001 to 0.01 µM.

For the compound `CN1CCN(c2ccc(Nc3nccc(-n4cc(C(N)=O)c5ccccc54)n3)cc2)CC1` [Compound 45, 1-{2-[4-(4-methyl-piperazin-1-yl)-phenylamino]-pyrimidin-4-yl}-1H-indole-3-carboxamide], the IC50 fell in the range of 0.01 to 0.1 µM.

As for `CN1CCN(c2ccc(Nc3nccc(-n4cc(C(N)=O)c5ccccc54)n3)cc2F)CC1` [Compound 46, 1-{2-[3-fluoro-4-(4-methyl-piperazin-1-yl)-phenylamino]-pyrimidin-4-yl}-1H-indole-3-carboxamide], the IC50 lay in the range of 0.001 to 0.01 µM.

As for `CN1CCN(c2c(F)cc(Nc3nccc(-n4cc(C(N)=O)c5ccccc54)n3)cc2F)CC1` [Compound 47, 1-{2-[3,5-difluoro-4-(4-methyl-piperazin-1-yl)-phenylamino]-pyrimidin-4-yl}-1H-indole-3-carboxamide], the IC50 fell in the range of 0.01 to 0.1 µM.

As for `COc1cc(Nc2nccc(-n3cc(C(N)=O)c4ccccc43)n2)ccc1N1CCN(C)CC1` [Compound 48, 1-{2-[3-methoxy-4-(4-methyl-piperazin-1-yl)-phenylamino]-pyrimidin-4-yl}-1H-indole-3-carboxamide], the IC50 was in the range of 0.01 to 0.1 µM.

In the case of `CN1CCN(c2ccc(Nc3nccc(-n4cc(C(N)=O)c5ccccc54)n3)cc2C#N)CC1` [Compound 49, 1-{2-[3-cyano-4-(4-methyl-piperazin-1-yl)-phenylamino]-pyrimidin-4-yl}-1H-indole-3-carboxamide], the IC50 was in the range of 0.001 to 0.01 µM.

On to `Cc1cc(Nc2nccc(-n3cc(C(N)=O)c4ccccc43)n2)ccc1N1CCN(C)CC1` [Compound 50, 1-{2-[3-methyl-4-(4-methyl-piperazin-1-yl)-phenylamino]-pyrimidin-4-yl}-1H-indole-3-carboxamide], for which the IC50 fell in the range of 0.001 to 0.01 µM.

For `Cc1cc(Nc2nccc(-n3cc(C(N)=O)c4ccccc43)n2)ccc1N1CCN(C(C)C)CC1` [Compound 51, 1-{2-[4-(4-isopropyl-piperazin-1-yl)-3-methyl-phenylamino]-pyrimidin-4-yl}-1H-indole-3-carboxamide], the IC50 was in the range of 0.001 to 0.01 µM.

In the case of `CN1CCN(c2ccc(Nc3ncc(F)c(-n4cc(C(N)=O)c5ccccc54)n3)cc2)CC1` [Compound 52, 1-{5-fluoro-2-[4-(4-methyl-piperazin-1-yl)-phenylamino]-pyrimidin-4-yl}-1H-indole-3-carboxamide], the IC50 lay in the range of 0.001 to 0.01 µM.

Regarding `CN1CCN(c2ccc(Nc3ncc(Cl)c(-n4cc(C(N)=O)c5ccccc54)n3)cc2)CC1` [Compound 53, 1-{5-chloro-2-[4-(4-methyl-piperazin-1-yl)-phenylamino]-pyrimidin-4-yl}-1H-indole-3-carboxamide], the IC50 lay within 0.001 to 0.01 µM.

Take `CN1CCN(c2ccc(Nc3ncc(F)c(-n4cc(C(N)=O)c5ccccc54)n3)cc2F)CC1` [Compound 54, 1-{5-fluoro-2-[3-fluoro-4-(4-methyl-piperazin-1-yl)-phenylamino]-pyrimidin-4-yl}-1H-indole-3-carboxamide]: the IC50 is 0.001 to 0.01 µM.

Regarding `CCN1CCN(c2ccc(Nc3ncc(F)c(-n4cc(C(N)=O)c5ccccc54)n3)cc2C)CC1` [Compound 57, 1-{2-[4-(4-ethyl-piperazin-1-yl)-3-methyl-phenylamino]-5-fluoro-pyrimidin-4-yl}-1H-indole-3-carboxamide], the IC50 was in the range of 0.001 to 0.01 µM.

As to `CCN1CCN(c2ccc(Nc3ncc(Cl)c(-n4cc(C(N)=O)c5ccccc54)n3)cc2C)CC1` [Compound 58, 1-{5-chloro-2-[4-(4-ethyl-piperazin-1-yl)-3-methyl-phenylamino]-pyrimidin-4-yl}-1H-indole-3-carboxamide], the IC50 was < 0.001 µM.

For `Cc1cc(Nc2ncc(F)c(-n3cc(C(N)=O)c4ccccc43)n2)ccc1N1CCN(C(C)C)CC1` [Compound 59, 1-{5-fluoro-2-[4-(4-isopropyl-piperazin-1-yl)-3-methyl-phenylamino]-pyrimidin-4-yl}-1H-indole-3-carboxamide], the IC50 is 0.001 to 0.01 µM.

Take `CN1CCN(c2ccc(Nc3ncc(Cl)c(-n4cc(C(N)=O)c5ccccc54)n3)cc2F)CC1` [Compound 61, 1-{5-chloro-2-[3-fluoro-4-(4-methyl-piperazin-1-yl)-phenylamino]-pyrimidin-4-yl}-1H-indole-3-carboxamide]: the half-inhibitory concentration (IC50) lay within 0.001 to 0.01 µM.

For `CN1CCC(N2CCN(c3ccc(Nc4nccc(-n5cc(C(N)=O)c6ccccc65)n4)cc3F)CC2)CC1` [Compound 62, 1-(2-{3-fluoro-4-[4-(1-methyl-piperidin-4-yl)-piperazin-1-yl]-phenylamino}-pyrimidin-4-yl)-1H-indole-3-carboxamide], the IC50 lay in the range of 0.01 to 0.1 µM.

With `CN(C)CCN1CCN(c2ccc(Nc3nccc(-n4cc(C(N)=O)c5ccccc54)n3)cc2F)CC1` [Compound 63, 1-(2-{4-[4-(2-dimethylamino-ethyl)-piperazin-1-yl]-3-fluoro-phenylamino}-pyrimidin-4-yl)-1H-indole-3-carboxamide], the IC50 is 0.001 to 0.01 µM.

`C=CC(=O)N1CCN(c2ccc(Nc3nccc(-n4cc(C(N)=O)c5ccccc54)n3)cc2C)CC1` [Compound 64, 1-{2-[4-(4-acryloyl-piperazin-1-yl)-3-methyl-phenylamino]-pyrimidin-4-yl}-1H-indole-3-carboxamide]: the IC50 lay in the range of 0.01 to 0.1 µM.
